Assays:
[1] = tested on: human dermal fibroblasts; assay: ATP synthesized by fibroblasts in premature senescence after oxidizing stress (chemiluminescence); assay type: cell-based; details: for ATP: after hydrogen peroxide stress
Experimental: Principle: human dermal fibroblasts at confluence received the GGP for 24 h. After this phase, they were treated with hydrogen peroxide in the presence or absence of the GGP. This stress is intended to induce premature senescence (SIPS) in cells and thus a decrease in ATP synthesis. A few hours after this stress, cells were lysed and the amount of intracellular ATP was assessed by chemiluminescence. This amount of ATP was divided by the amount of intracellular proteins.

[2] = tested on: Keratinocytes; assay: Keratinocyte culture survival and recovery after UVB stress (cell count); assay type: cell-based; details: for Cell number, mean (n = 3): UVB 50 mJ/cm^2, six days later
Experimental: Keratinocytes in monolayer, after an UVB radiation (12 to 240 mJ/cm^2), develop on their surface many burgeons, detach from the culture medium, undergo damages up to death. A cell count at various times after UVB radiation is used to evaluate the cell viability of the culture. This model is widely used in cosmetics to evaluate the protective effect of various compounds against the deleterious effects of UVB stress.
Principle: Keratinocytes were cultured in 35 mm dish. Just at confluence, the cells are contacted or not with the GGP for 24 hours. UVB irradiation (50 mJ/cm^2) is performed the next day, and the cells are or not contacted with the GGP. Six days later, the cells are counted to determine the cell viability in culture.

[3] = tested on: syndecan 1; assay: Syndecan 1 synthesis in NHK supernatants (ELISA); assay type: cell-based, human; details: for Syndecan 1: 48 h, n = 3
Experimental: Principle: Human keratinocytes (NHK) are cultivated in a growth medium. After 6 days of incubation, the cells are contacted or not with the tested products (GGP and GGA) at 3, 5 or 7 ppm for 48 h. After incubation, the supernatants are taken and the syndecan 1 content is assayed by ELISA in these supernatants. The cell layers are sonicated and the cell number is evaluated by Hoechst method.

## CC(C)=CCC/C(C)=C/CC/C(C)=C/CC/C(C)=C/CCC(C)O (stereo not shown) [GGP, 6,10,14,18-tetramethylnonadeca-5,9,13,17-tetraen-2-ol]
[1]; 5 ppm
  Change (%) of ATP vs after-stress control: +76%; p <
  ATP: 311 +/− 80 nM/0.1 μg protein
[1]; 7 ppm
  Change (%) of ATP vs after-stress control: +460%; p <
  ATP: 988 +/− 38 nM/0.1 μg protein
[2]; 1 ppm
  % change/control of cell number: +31%
  Cell number, mean (n = 3): 4.83 ×10^5/35 mm dish
[2]; 1.65 ppm
  % change/control of cell number: +38%
  Cell number, mean (n = 3): 5.08 ×10^5/35 mm dish
[3]; 3 ppm
  Change (%) of syndecan 1 vs control: +96%; p < 0.01
  Syndecan 1: 135.3 +/− 6.3 pg/10^6 cell
[3]; 5 ppm
  Change (%) of syndecan 1 vs control: +190%; p < 0.01
  Syndecan 1: 200.6 +/− 15.8 pg/10^6 cell
[3]; 7 ppm
  Syndecan 1: 265.5 +/− 24.3 pg/10^6 cell
